According to ChEMBL document CHEMBL4742400, “Protein kinase mkk4 inhibitors for promoting liver regeneration or reducing or preventing hepatocyte death” (2019):

Key:
Homo sapiens [1] = species on record: Homo sapiens; assay: (§1) Selectivity index, ratio of inhibition of full length human JNK1 (M1 to Q384 residues) expressed in mammalian expression system assessed as residual percent of control binding at 100 nM relative to control to inhibition of partial length human MKK4 (S84 to D399 residues) expressed in mammalian expression system assessed as residual percent of control binding at 100 nM relative to control
Homo sapiens [2] = species on record: Homo sapiens; assay: as §1, with “MKK7” for “JNK1”, “R419” for “Q384”
Homo sapiens [3] = species on record: Homo sapiens; assay: Selectivity index, ratio of inhibition of B-raf (unknown origin) to inhibition of partial length human MKK4 (S84 to D399 residues) expressed in mammalian expression system assessed as residual percent of control binding at 100 nM relative to control

| Compound | Selectivity ratio (Homo sapiens [1]) | Selectivity ratio (Homo sapiens [2]) | Selectivity ratio (Homo sapiens [3]) |
| --- | --- | --- | --- |
| CCCS(=O)(=O)Nc1ccc(F)c(C(=O)c2n[nH]c3ncc(-c4cccc(O)c4)cc23)c1F | 3 | > 30 | 3 |
| CCCS(=O)(=O)Nc1ccc(F)c(C(=O)c2n[nH]c3ncc(-c4cccc(F)c4)cc23)c1F | 10 | 10 | < 3 |
| CCCS(=O)(=O)Nc1ccc(F)c(C(=O)c2n[nH]c3ncc(-c4cccc(C(F)(F)F)c4)cc23)c1F | < 3 | < 3 | < 3 |
| CCCS(=O)(=O)Nc1ccc(F)c(C(=O)c2n[nH]c3ncc(-c4ccc(S(N)(=O)=O)cc4)cc23)c1F | > 30 | > 30 | 3 |
| CCCS(=O)(=O)Nc1ccc(F)c(C(=O)c2n[nH]c3ncc(-c4ccc(C(C)C)cc4)cc23)c1F | 3 | 3 | 3 |
| CCCS(=O)(=O)Nc1ccc(F)c(C(=O)c2n[nH]c3ncc(-c4cc(Cl)cc(Cl)c4)cc23)c1F | < 3 | < 3 | < 3 |
| CCCS(=O)(=O)Nc1ccc(F)c(C(=O)c2n[nH]c3ncc(-c4ccc(C(C)(C)C)cc4)cc23)c1F | < 3 | < 3 | < 3 |
| CCCS(=O)(=O)Nc1ccc(F)c(S(=O)(=O)c2n[nH]c3ncc(-c4ccc(Cl)cc4)cc23)c1F | < 3 | < 3 | < 3 |
| CCCS(=O)(=O)Nc1ccc(F)c(C(=O)c2n[nH]c3ncc(-c4ccc(C(F)(F)F)cc4)cc23)c1F | 3 | 3 | < 3 |
| CCCS(=O)(=O)Nc1ccc(F)c(C(=O)c2n[nH]c3ncc(-c4ccc(N)cc4)cc23)c1F | > 30 | > 30 | 10 |
| CCCS(=O)(=O)Nc1ccc(F)c(C(=O)c2n[nH]c3ncc(-c4ccccc4OC)cc23)c1F | 10 | > 30 | > 30 |
| CCCS(=O)(=O)Nc1ccc(F)c(Sc2n[nH]c3ncc(-c4ccc(Cl)cc4)cc23)c1F | < 3 | < 3 | < 3 |
| CCCS(=O)(=O)Nc1ccc(F)c(C(=O)c2n[nH]c3ncc(-c4ccc(Cl)c(C(F)(F)F)c4)cc23)c1F | > 30 | 3 | < 3 |
| CCCS(=O)(=O)Nc1ccc(F)c(C(=O)c2n[nH]c3ncc(-c4ccc(F)cc4)cc23)c1F | > 30 | > 30 | 10 |
| CCCS(=O)(=O)Nc1ccc(F)c(C(=O)c2n[nH]c3ncc(-c4ccc(N(C)C)cc4)cc23)c1F | > 30 | > 30 | < 3 |
| CCCS(=O)(=O)Nc1ccc(F)c(C(=O)c2n[nH]c3ncc(-c4cccc([N+](=O)[O-])c4)cc23)c1F | 3 | 3 | < 3 |
| CCCS(=O)(=O)Nc1ccc(F)c(C(=O)c2n[nH]c3ncc(-c4cccc(Cl)c4)cc23)c1F | < 3 | < 3 | < 3 |
| CCCS(=O)(=O)Nc1ccc(F)c(C(=O)c2n[nH]c3ncc(-c4ccccc4F)cc23)c1F | > 30 | > 30 | 10 |
| CCCS(=O)(=O)Nc1ccc(F)c(C(=O)c2n[nH]c3ncc(-c4ccc(C(=O)NCC(O)CO)cc4)cc23)c1F (stereo unspecified) | > 30 | > 30 | < 3 |
| CCCS(=O)(=O)Nc1c(F)ccc(C(=O)c2n[nH]c3ncc(-c4ccc(C(=O)O)cc4)cc23)c1F | > 30 | > 30 | > 30 |
| CCCS(=O)(=O)Nc1ccc(F)c(C(=O)c2n[nH]c3ncc(-c4ccccc4)cc23)c1F | 10 | > 30 | 10 |
| CCCS(=O)(=O)Nc1ccc(F)c(C(=O)c2n[nH]c3ncc(-c4ccccc4O)cc23)c1F | 3 | 10 | 3 |
| CCCS(=O)(=O)Nc1ccc(F)c(C(=O)c2n[nH]c3ncc(-c4cccc(N(C)C)c4)cc23)c1F | 3 | 3 | < 3 |
| CCCS(=O)(=O)Nc1ccc(F)c(C(=O)c2n[nH]c3ncc(-c4ccc(C)c(C)c4)cc23)c1F | 3 | 3 | < 3 |

| Compound | Selectivity ratio (Homo sapiens [1]) | Selectivity ratio (Homo sapiens [2]) | Selectivity ratio (Homo sapiens [3]) |
| --- | --- | --- | --- |
| CCCS(=O)(=O)Nc1ccc(F)c(C(=O)c2n[nH]c3ncc(-c4ccc(C(N)=O)cc4)cc23)c1F | > 30 | > 30 | 3 |
| CCCS(=O)(=O)Nc1ccc(F)c(C(=O)c2n[nH]c3ncc(-c4cccc(C)c4)cc23)c1F | 3 | 3 | < 3 |
| CCCS(=O)(=O)Nc1ccc(F)c(C(=O)c2n[nH]c3ncc(-c4ccc(C)cc4)cc23)c1F | 10 | 10 | < 3 |
| CCCS(=O)(=O)Nc1ccc(F)c(C(=O)c2n[nH]c3ncc(-c4ccc(S(C)(=O)=O)cc4)cc23)c1F | > 30 | > 30 | < 3 |
| CCCS(=O)(=O)Nc1ccc(F)c(C(=O)c2n[nH]c3ncc(-c4ccc(C(=O)O)cc4)cc23)c1F | > 30 | > 30 | 10 |
| CCCS(=O)(=O)Nc1ccc(F)c(C(=O)c2n[nH]c3ncc(-c4cccc(OC)c4)cc23)c1F | 10 | 10 | 3 |
| CCCS(=O)(=O)Nc1ccc(F)c([S+]([O-])c2n[nH]c3ncc(-c4ccc(Cl)cc4)cc23)c1F (stereo unspecified) | < 3 | < 3 | < 3 |
| CCCS(=O)(=O)Nc1ccc(F)c(C(=O)c2n[nH]c3ncc(-c4ccc(OC)cc4)cc23)c1F | 10 | 10 | < 3 |
| CCCS(=O)(=O)Nc1ccc(F)c(C(=O)c2n[nH]c3ncc(-c4ccc(Cl)cc4Cl)cc23)c1F | 3 | 3 | 3 |
| CCCS(=O)(=O)Nc1ccc(F)c(C(=O)c2n[nH]c3ncc(-c4ccc(O)cc4)cc23)c1F | > 30 | > 30 | 10 |
| O=C(c1ccc(F)c(NS(=O)(=O)Cc2ccccc2)c1F)c1n[nH]c2ncc(-c3ccncc3)cc12 | > 30 | > 30 | > 30 |
| CCCS(=O)(=O)Nc1ccc(F)c(C(=O)c2n[nH]c3ncc(-c4cccc(N)c4)cc23)c1F | > 30 | > 30 | < 3 |
| CCCS(=O)(=O)Nc1ccc(F)c(C(=O)c2n[nH]c3ncc(-c4ccc(S(=O)(=O)NC(C)=O)cc4)cc23)c1F | > 30 | > 30 | < 3 |
| CCCS(=O)(=O)Nc1ccc(F)c(C(=O)c2n[nH]c3ncc(-c4ccc(-c5nnn[nH]5)cc4)cc23)c1F | > 30 | > 30 | 3 |
| CCCS(=O)(=O)Nc1ccc(F)c(C(=O)c2n[nH]c3ncc(-c4ccc(Cl)c(Cl)c4)cc23)c1F | 10 | < 3 | < 3 |
| CCCS(=O)(=O)Nc1ccc(F)c(NC(=O)c2n[nH]c3ncc(-c4ccc(Cl)cc4)cc23)c1F | < 3 | < 3 | < 3 |
| CCCCS(=O)(=O)Nc1cccc(C(=O)c2n[nH]c3ncc(-c4ccc5c(c4)OCCO5)cc23)c1F | < 3 | 3 | 3 |
| CCCS(=O)(=O)Nc1ccc(F)c(C(=O)c2n[nH]c3ncc(-c4ccc(S(=O)(=O)NCC(O)CO)cc4)cc23)c1F (stereo unspecified) | > 30 | > 30 | < 3 |
| CCCS(=O)(=O)Nc1ccc(F)c(C(=O)c2n[nH]c3ncc(-c4ccccc4C)cc23)c1F | 10 | 10 | 3 |
| CCCS(=O)(=O)Nc1ccc(F)c(Cc2n[nH]c3ncc(-c4ccc(Cl)cc4)cc23)c1F | < 3 | < 3 | < 3 |
| CCCS(=O)(=O)Nc1ccc(F)c(C(=O)c2n[nH]c3ncc(-c4ccccc4N)cc23)c1F | 3 | 3 | 3 |
| CCCS(=O)(=O)Nc1ccc(F)c(C(=O)c2n[nH]c3ncc(-c4ccc([N+](=O)[O-])cc4)cc23)c1F | 10 | 10 | 3 |
| CCCS(=O)(=O)Nc1ccc(F)c(C(=O)c2n[nH]c3ncc(-c4ccccc4Cl)cc23)c1F | 10 | 10 | 3 |
